Key:
Aster-B = target: T1, Aster-B (Homo sapiens, UniProt Q3KR37); assay: Fluorescence polarisation (FP) competition with NBD-cholesterol, Aster-B; format: binding; conditions: for Aster-B (FP) inhibition / inhibition at 10 µM: single dose, Dose = 10 µM; for IC50: mean of three experiments run in technical duplicates
T1 construct: -B(364-552); GST (PreScission-cleavable) (N, cleaved yes); made in house; host or cells: E. coli OverExpress C41
T1 sequence (Q3KR37 364-552): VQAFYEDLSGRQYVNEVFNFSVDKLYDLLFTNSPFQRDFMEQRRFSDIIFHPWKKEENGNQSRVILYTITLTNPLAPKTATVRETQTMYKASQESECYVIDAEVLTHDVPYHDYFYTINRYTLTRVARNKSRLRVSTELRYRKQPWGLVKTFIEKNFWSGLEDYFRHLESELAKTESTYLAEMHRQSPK
Text: (§1) Protein expression constructs
(§2) Human ASTER domains of Aster-A(359-547), -B(364-552) and -C(318-504) were subcloned into a pGEX-6p-2rbs vector, thus introducing the cloning artifact ‘GPLGS’.3 The pGEX-6P-1-GST-OSBP(377- […]
(§3) a gift from James H. Hurley (University of California).4 The pHIS_2His6_Thrombin_STARD4(2-205;C75S) plasmid was a gift from Young Jun Im (Chonnam National University).5 STARD5A was a gift from Nicola Burgess-Brown (Addgene plasmid #42392; http://n2t.net/addgene:42392; […]
(§4) Protein expression and purification […]
(§5) vectors including an N-terminal PreScission-cleavable glutathione S-transferase (GST)-tag were expressed in Escherichia coli (E. coli) OverExpress C41 in Terrific Broth (TB) medium for 16 h at 18 °C after the induction with 0.1 mM isopropyl β-D-1-thiogalactopyranoside (IPTG). Cells were harvested at 3500 × g for 15 minutes and lysed by sonication in buffer containing 50 mM HEPES pH 7.5, 300 mM NaCl, 10 %v/v glycerol, 5 mM dithiothreitol (DTT), 0.1 %v/v Triton X-100 and protease inhibitor mix HP plus (Serva). The lysate was purified by affinity chromatography on a GSTrap FF column (Cytiva) using an ÄKTA Start (Cytiva) in buffer containing 50 mM HEPES pH 7.5, 300 mM NaCl, 10 %v/v glycerol, 5 mM DTT and 0.01 %v/v Triton X-100. The GST-tag was cleaved overnight on the column at 4 °C. The Aster sterol binding domains were further purified by size-exclusion chromatography (SEC) on a HiLoad 16/600 Superdex 75 pg (Cytiva) in buffer containing 20 mM HEPES pH 7.5, 300 mM NaCl, 10 %v/v […]
(§6) STARD5(6-213) harboring an N-terminal His6-Tag were expressed in E. coli BL21(DE3) in Luria-Bertani Broth (LB) medium for approximately 16 h at 18 °C after induction with 0.15 mM IPTG. Cells were harvested at 3500 × g for 15 minutes and lysed by sonication in buffer containing 50 mM HEPES pH 7.5, 150 mM NaCl, 5 %v/v glycerol, 5 mM DTT, 0.1 %v/v Triton X -100 and ethylenediaminetetraacetic acid (EDTA)-free protease inhibitor cocktail (Sigma-Aldrich). The cleared lysate was purified by affinity chromatography on a Ni-NTA Superflow Cartridge (Qiagen) using an ÄKTA Start (Cytiva) in buffer containing 50 mM HEPES pH 7.5, 150 mM NaCl, 5 %v/v glycerol, 5 mM DTT. START domains were eluted by using elution buffer containing 50 mM HEPES pH 7.5, 150 mM NaCl, 5 %v/v glycerol, 5 mM DTT and 500 mM imidazole. Proteins were further purified by SEC on a HiLoad 16/600 Superdex 75 pg (Cytiva) in buffer containing 20 mM HEPES pH 7.5, 150 mM NaCl, 5 %v/v glycerol and 2 mM DTT.
(§7) The ORP domain of human OSBP(377-807) in the pGEX-6p-1 vector with an N-terminal PreScission-cleavable GST-tag was expressed in E. coli OverExpress C41 in LB medium for 16 h at 18 °C after induction with 0.1 mM IPTG. Cells were harvested at 3500 × g for 15 minutes and lysed by sonication in buffer containing 20 mM HEPES pH 7.5, 300 mM NaCl, 10 %v/v glycerol, 5 mM DTT, 0.1 %v/v Triton X-100 and EDTA-free protease inhibitor cocktail (Sigma-Aldrich). The cleared lysate was purified by affinity chromatography on a GSTrap HF column (Cytiva) using an ÄKTA Start (Cytiva) in buffer containing 20 mM HEPES pH 7.5, 300 mM NaCl, 10 %v/v glycerol, 5 mM DTT. OSBP(377 -807) was eluted by using elution buffer containing 20 mM HEPES pH 7.5, 300 mM NaCl, 10 %v/v glycerol, 5 mM DTT and 10 mM reduced glutathione. Proteins were further purified by SEC on a HiLoad 16/600 Superdex 75 pg (Cytiva) using an ÄKTA Explorer (Cytiva) in buffer containing 20 mM HEPES pH 7.5, 150 mM NaCl, 10 %v/v glycerol and 2 mM DTT.
(§8) The ORP domains of human ORP1(534-950) in pET24b(+) and ORP2(49-480) in the pET24b(+) vector including an N-terminal His6-Tag were expressed in E. coli BL21(DE3) in TB medium for approximately 16 h at 18 °C after induction with 0.1 mM IPTG. Cells were collected at 3500 × g for 15 minutes and lysed by sonification in buffer containing 10 mM Tris-HCl pH 8, 300 mM NaCl, 5 % glycerol, 2 mM DTT, 0.1 % Triton X-100 and EDTA-free protease inhibitor cocktail (Sigma-Aldrich). The cleared […]

STARD3 = target: T2, STARD3 (Homo sapiens, UniProt Q14849); assay: Differential scanning fluorimetry (DSF), STARD3; format: binding; conditions: for STARD3 (DSF) ΔTm / ΔTm at 10 µM: single dose, Dose = 10 µM; for Kd: apparent Kd, mean of three experiments run in technical duplicates, read-out: STARD3 Kd,app (DSF); for STARD3 (DSF) ΔTmmax: maximal thermal shift
T2 construct: STARD3(216-444); made in house; host or cells: E. coli BL21(DE3)
T2 sequence (Q14849 216-444): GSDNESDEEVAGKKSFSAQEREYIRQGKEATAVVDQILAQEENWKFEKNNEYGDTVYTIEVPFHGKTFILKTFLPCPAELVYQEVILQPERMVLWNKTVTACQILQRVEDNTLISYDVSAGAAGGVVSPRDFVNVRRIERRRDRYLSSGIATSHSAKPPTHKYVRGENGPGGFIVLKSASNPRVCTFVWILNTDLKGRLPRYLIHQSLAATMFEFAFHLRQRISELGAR
Text: as §1, §2, §3, §4, §5, §6, §7, §8

| SMILES | Aster-B (FP) inhibition (Aster-B) | STARD3 (DSF) ΔTm (STARD3) | inhibition at 10 µM (Aster-B) | ΔTm at 10 µM (STARD3) | IC50 (Aster-B) | Kd (STARD3) | STARD3 (DSF) ΔTmmax (STARD3) |
| --- | --- | --- | --- | --- | --- | --- | --- |
| C[C@]12CC[C@@H](O)C[C@H]1CCc1c2[nH]c2ccc(F)cc12 [Compound 10d] | 0.833% | -0.115 °C | – | – | – | – | – |
| Cc1ccc2[nH]c3c(c2c1)CC[C@@H]1C[C@H](O)CC[C@]31C [Compound 10e] | – | – | 1.67% | 0.0774 °C | – | – | – |
| COc1ccc2[nH]c3c(c2c1)CC[C@@H]1C[C@H](O)CC[C@]31C [Compound 10f] | – | – | 13% | -0.0471 °C | – | – | – |
| CC12CCC(O)CC1CCc1c2[nH]c2ccc(C(F)(F)F)cc12 (stereo not drawn) [Compound 10g] | – | – | -2.5% | 0.227 °C | – | – | – |
| C[C@]12CC[C@@H](O)C[C@H]1CCc1c2[nH]c2ccc(I)cc12 [Compound 10h] | 32% | 0.1 °C | – | – | – | – | – |
| C[C@]12CC[C@@H](O)C[C@H]1CCc1c2[nH]c2c(F)cc(Cl)cc12 [Compound 10i] | – | – | -4% | 0.0372 °C | – | – | – |
| Cc1cc(C)c2c3c([nH]c2c1)[C@@]1(C)CC[C@@H](O)C[C@H]1CC3 [Compound 10j] | – | – | 16% | -0.108 °C | – | – | – |
| CCOC(=O)c1ccc2[nH]c3c(c2c1)CC[C@@H]1C[C@H](O)CC[C@]31C [Compound 10k] | -4% | 0.08 °C | – | – | – | – | – |
| C[C@]12CC[C@@H](O)C[C@H]1CCC(=O)c1ccccc1NC2=O [Compound 11a] | 10% | -0.0327 °C | – | – | – | – | – |
| C[C@]12CC[C@@H](O)C[C@H]1CCC(=O)c1cc(Br)ccc1NC2=O [Compound 11b] | – | – | 7.5% | -0.0537 °C | – | – | – |
| Cc1ccc2c(c1)C(=O)CC[C@@H]1C[C@H](O)CC[C@]1(C)C(=O)N2 [Compound 11c] | – | – | 6% | -0.0522 °C | – | – | – |
| COc1ccc2c(c1)C(=O)CC[C@@H]1C[C@H](O)CC[C@]1(C)C(=O)N2 [Compound 11d] | – | – | 4% | -0.119 °C | – | – | – |
| C[C@]12CC[C@@H](O)C[C@H]1CCC(=O)c1cc(C(F)(F)F)ccc1NC2=O [Compound 11e] | – | – | 7% | -0.0434 °C | – | – | – |
| C[C@]12CC[C@@H](O)C[C@H]1CCC(=O)c1cc(Cl)cc(F)c1NC2=O [Compound 11f] | 11% | -0.0767 °C | – | – | – | – | – |
| Cc1cc(C)c2c(c1)NC(=O)[C@@]1(C)CC[C@@H](O)C[C@H]1CCC2=O [Compound 11g] | – | – | 11% | -0.0181 °C | – | – | – |
| Cc1ccc2[nH]c3c(c(=O)c2c1)C[C@@H]1C[C@H](O)CC[C@]31C [Compound 12] | – | – | 11% | -0.0694 °C | – | – | – |

| SMILES | Aster-B (FP) inhibition (Aster-B) | STARD3 (DSF) ΔTm (STARD3) | inhibition at 10 µM (Aster-B) | ΔTm at 10 µM (STARD3) | IC50 (Aster-B) | Kd (STARD3) | STARD3 (DSF) ΔTmmax (STARD3) |
| --- | --- | --- | --- | --- | --- | --- | --- |
| Cc1ccc2c(c1)[C@]1(O)CC[C@@H]3C[C@H](O)CC[C@]3(C)C1=N2 [Compound 14a] | – | – | 12% | 0.2 °C | – | – | – |
| COc1ccc2c(c1)[C@]1(O)CC[C@@H]3C[C@H](O)CC[C@]3(C)C1=N2 [Compound 14b] | – | – | 17% | 0.0447 °C | – | – | – |
| Cc1cc(C)c2c(c1)N=C1[C@@]2(O)CC[C@@H]2C[C@H](O)CC[C@]12C [Compound 14c] | – | – | 17% | 0.0424 °C | – | – | – |
| C[C@]12CC[C@@H]3C[C@H]1CC[C@@]21C(=Nc2ccccc21)O3 [Compound 15a] | – | – | 13% | -0.061 °C | > 80 µM | – | – |
| CC12CCC3CC1CCC21C(=Nc2ccc(Cl)cc21)O3 (stereo not drawn) [Compound 15c] | – | – | 12% | 0.0794 °C | > 80 µM | – | – |
| C[C@]12CC[C@@H]3C[C@H]1CC[C@@]21C(=Nc2ccc(F)cc21)O3 [Compound 15d] | – | – | 11% | 0.129 °C | > 80 µM | – | – |
| Cc1ccc2c(c1)[C@@]13CC[C@@H]4C[C@@H](CC[C@@]41C)OC3=N2 [Compound 15e] | – | – | 27% | 0.167 °C | > 80 µM | – | – |
| COc1ccc2c(c1)[C@@]13CC[C@@H]4C[C@@H](CC[C@@]41C)OC3=N2 [Compound 15f] | – | – | 23% | 0.559 °C | > 80 µM | – | – |
| C[C@]12CC[C@@H]3C[C@H]1CC[C@@]21C(=Nc2ccc(C(F)(F)F)cc21)O3 [Compound 15g] | – | – | 18% | 0.655 °C | > 80 µM | – | – |
| CC12CCC3CC1CCC21C(=Nc2c(Br)cc(C(F)(F)F)cc21)O3 (stereo not drawn) [Compound 15h] | – | – | 18% | 0.0409 °C | > 80 µM | – | – |
| C[C@]12CC[C@@H]3C[C@H]1CC[C@@]21C(=Nc2c(F)cc(Cl)cc21)O3 [Compound 15i] | – | – | 13% | -0.0884 °C | > 80 µM | – | – |
| CC12CCC3CC1CCC21C(=Nc2ccc(NCc4ccccc4)cc21)O3 (stereo not drawn) [Compound 19b] | – | – | 9% | 3.3 °C | > 80 µM | 11.3 µM | 6.3 °C |
| CCCCCNc1ccc2c(c1)[C@@]13CC[C@@H]4C[C@@H](CC[C@@]41C)OC3=N2 [Compound 19c] | – | – | 11% | 4.3 °C | > 80 µM | 9.54 µM | 7.2 °C |
| CCCCN(C)c1ccc2c(c1)[C@@]13CC[C@@H]4C[C@@H](CC[C@@]41C)OC3=N2 [Compound 19d] | – | – | 16% | 1.7 °C | > 80 µM | > 100 µM | 3.9 °C |
| CC(C)(C)OC(=O)N1CCN(c2ccc3c(c2)C24CCC5CC(CCC52C)OC4=N3)CC1 (stereo not drawn) [Compound 19e] | – | – | 14% | 4.3 °C | > 80 µM | 9.51 µM | 8.0 °C |
| C[C@]12CC[C@@H]3C[C@H]1CC[C@@]21C(=Nc2ccc(N(Cc4ccccc4)c4ccc5c(c4)[C@@]46CC[C@@H]7C[C@@H](CC[C@@]74C)OC6=N5)cc21)O3 [Compound 20a] | 6% | -0.221 °C | – | – | – | – | – |

From publication PMC11758220, “Identification of a Privileged Scaffold for Inhibition of Sterol Transport Proteins through the Synthesis and Ring Distortion of Diverse, Pseudo-Natural Products” (ACS Central Science, 2025)
